Our source for the Activity and viability values is ChEMBL document CHEMBL4414640, “Antiproliferative Pterocarpans and Coumestans from Lespedeza bicolor” (2019).

Activity calls are given as the source filed them. The calls are words filed in the database; no cut-off is given here.

Assay [1] concerns Jurkat. Put plainly: Antiproliferative activity against human Jurkat cells at 5 to 100 uM incubated for 48 hrs by MTS assay. The class given is functional, cell-based.
In assay [2] the test system is Jurkat. Briefly: Induction of apoptosis in human Jurkat cells at 10 uM incubated for 24 to 48 hrs by phase contrast microscopic method. It counts as functional, cell-based.
Assay [3] concerns Jurkat. Briefly: Induction of apoptosis in human Jurkat cells assessed as viable cells at 10 uM incubated 48 hrs by annexin-V and 7AAD staining based flow cytometry (reference value: 91.9%). It counts as functional. The following applies: read-out: Activity.
For assay [4], the system named is Jurkat. Put plainly: Induction of apoptosis in human Jurkat cells assessed as early apoptotic cells at 10 uM incubated 48 hrs by annexin-V and 7AAD staining based flow cytometry (reference value: 3.16%). It counts as functional. For orientation: In flow cytometry, cells or beads pass a laser one at a time.
Assay [5] deals with Jurkat. Briefly: Induction of apoptosis in human Jurkat cells assessed as late apoptotic cells at 10 uM incubated 48 hrs by annexin-V and 7AAD staining based flow cytometry (reference value: 3.78%). It counts as functional.
The test system of assay [6] is Jurkat. Briefly: Induction of apoptosis in human Jurkat cells assessed as necrotic cells at 10 uM incubated 48 hrs by annexin-V and 7AAD staining based flow cytometry (reference value: 1.16%). It counts as functional.
Assay [7] has as its system Jurkat. Put plainly: Induction of apoptosis in human Jurkat cells assessed as downregulation in BCL2 protein expression at 10 uM incubated for 48 hrs by Western blot analysis. The class given is functional, cell-based. For orientation: Immunoblotting shows a protein as a band on a membrane.
Assay [8] has as its system Jurkat. Briefly: Induction of apoptosis in human Jurkat cells assessed as increase in PARP cleavage at 10 uM incubated for 48 hrs by Western blot analysis. It counts as functional, cell-based.
Assay [9] concerns Jurkat. Put plainly: Induction of mitochondrial membrane potential loss in human Jurkat cells assessed as membrane potential at 10 uM incubated for 48 hrs by TMRM staining based flow cytometric analysis (reference value: 94.1%). The class given is functional.
Assay [10] has as its system Jurkat. Put plainly: Induction of cell cycle arrest in human Jurkat cells assessed as accumulation at G1 phase at 10 uM incubated for 48 hrs by PI staining based cell counting method (reference value: 71.4%). The class given is functional.
For assay [11], the system named is Jurkat. Put plainly: Induction of cell cycle arrest in human Jurkat cells assessed as accumulation at S phase at 10 uM incubated for 48 hrs by PI staining based cell counting method (reference value: 12.2%). It counts as functional.
Assay [12] has as its system Jurkat. Put plainly: Induction of cell cycle arrest in human Jurkat cells assessed as accumulation at G2/M phase at 10 uM incubated for 48 hrs by PI staining based cell counting method (reference value: 16.7%). It counts as functional.

Turning to `COc1c(CC=C(C)C)c(O)cc2c1[C@@H]1Oc3c(cc(O)c4c3C=CC(C)(C)O4)[C@@H]1CO2`, in the assay with Jurkat [1], the outcome was Active.

Consider `COc1c(CC=C(C)C)c(O)cc2c1[C@@H]1Oc3c(ccc4c3C=CC(C)(C)O4)[C@@H]1CO2`, for which the outcome in the assay with Jurkat [1] was Active.

As to `COc1cc2c(cc1O)OC1c3c(OC)cc(O)c(C/C=C(\C)CCC=C(C)C)c3OCC21` (stereo unspecified), the result in the assay with Jurkat [1], with Jurkat [2], with Jurkat [7] and in the assay with Jurkat [8] was Active. The viability at 10 µM in the assay on Jurkat [3] came to 43.9%. Further, the Activity with Jurkat [4] amounted to 11.3%; in the assay with Jurkat [5], 40.4%; with Jurkat [6] it was 4.43%; in the assay with Jurkat [9] it was 46.8%; in the assay on Jurkat [10], 82.1%; in the assay on Jurkat [11], 8.78%. Further, in the assay on Jurkat [12], the Activity turned out to be 9.3%.

On to `COc1c(C/C=C(\C)CCC=C(C)C)c(O)cc(O)c1-c1oc2c3c(c(O)cc2c1C=O)OC(C)(C)C=C3`, for which, in the assay on Jurkat [1], the result was Active.

In the case of `COc1c(CC=C(C)C)c(O)cc2c1[C@@H]1Oc3c(ccc(O)c3CC=C(C)C)[C@@H]1CO2`, the outcome in the assay on Jurkat [1] was Active.

For the compound `COc1c(CC=C(C)C)c(O)cc(O)c1-c1oc2c3c(c(O)cc2c1C=O)OC(C)(C)C=C3`, the result with Jurkat [1] was Active.

For `COc1c(CC=C(C)C)c(O)cc2oc(=O)c3c4cc(O)c5c(c4oc3c12)C=CC(C)(C)O5`, in the assay on Jurkat [1], the outcome was Active.

For `COc1c(CC=C(C)C)c(O)cc2oc(=O)c3c4cc(O)c(O)c(CC=C(C)C)c4oc3c12`, the result in the assay with Jurkat [1], in the assay with Jurkat [2], with Jurkat [7] and in the assay on Jurkat [8] was Active. In addition, the viability at 10 µM in the assay with Jurkat [3] amounted to 37.6%. The Activity amounted to 12.3% in the assay on Jurkat [4]; 46.7% with Jurkat [5]; 3.4% with Jurkat [6]; 12.9% with Jurkat [9]; 82.3% in the assay with Jurkat [10]; 10.9% in the assay with Jurkat [11]. Besides, the Activity in the assay with Jurkat [12] came out at 7.05%.

As for `COc1c(C/C=C(\C)CCC=C(C)C)c(O)cc2c1[C@@H]1Oc3c(cc(O)c4c3C=CC(C)(C)O4)[C@@H]1CO2`, the result in the assay with Jurkat [1] was Active.
